Here are results for two compounds from publication PMC3513391 (Biochemistry, 2012).

Assay [1] addresses T1, Homoprotocatechuate 2,3-dioxygenase (FeHPCD), Y257F variant (Brevibacterium fuscum, UniProt Q45135, Y257F). The assay can be described thus: UV-vis spectral change on anaerobic binding.
For assay [2], the target named is Homoprotocatechuate 2,3-dioxygenase (FeHPCD) (Brevibacterium fuscum, UniProt Q45135). The assay can be described thus: competition with 4NC by UV-vis. The format is binding.
For assay [3], the target named is T1, Homoprotocatechuate 2,3-dioxygenase (FeHPCD), Y257F variant. The assay can be described thus: competition with 4NC by UV-vis. Type of assay: binding.

As a reminder, the pKd is −log10 of the Kd, conventionally taken in molar units.

Molecules are shown by their SMILES. pKd: −log10 of the molar value.

`O=[N+]([O-])c1ccc(O)c(O)c1` [4NC, 4-nitrocatechol]: the pKd in assay [1] is about 5.30. As to `O=C(O)Cc1ccc(O)c(O)c1` [HPCA, homoprotocatechuate], the pKd in assay [2] and in assay [3] was over 5.30 throughout.
